The nature of series [1]: Apparent permeability coefficient (Papp) for apical to basolateral flux was determined in MadinDarby Canine Kidney cells. The note with it: dog, MDCK. It is filed as ADME, Canis lupus familiaris.
Series [2] can be described thus: Oral bioavailability in rat (male Wistar). It is filed as ADME, organism-based. The note with it: in vivo.
Series [3] can be described thus: Tested for the total clearance of the compound. It is filed as ADME, organism-based. The note with it: in vivo.
A short description of series [4]: Tested for iv terminal half-life dosed as a solution in male Han Wistar rats. The note with it: rat, in vivo. It is filed as ADME, organism-based.
The nature of series [5]: Steady state volume of distribution (Vsss) was determined. Format: ADME, organism-based. The note with it: in vivo; read-out: Vsss.
Series [6] can be described thus: Partition coefficient (logP). The note with it: octanol/water. It is filed as physicochemical.
Series [7] in a line: Tested for equilibrium solubility in fasted state-simulated intestinal fluid at pH 6.8. Format: ADME. The note with it: fasted state-simulated intestinal fluid (FS-SIF).

The source of these data is ChEMBL document CHEMBL1148252, “Orally bioavailable small molecule ketoamide-based inhibitors of cathepsin K” (Bioorg Med Chem Lett, 2004).

In brackets after ≈: the same amount, converted by molar mass.

As for `CCCC[C@H](NC(=O)OC(C(C)C)C(C)C)C(=O)C(=O)NCc1ccno1`, the Papp A→B in series [1] was determined as 41 ×10⁻⁶ cm/s. Moreover, in series [2], the bioavailability amounted to 32%. Further, in series [3], the clearance was 29 mL/min/kg. The same compound registered a half-life in series [4] of 0.867 h. Further, in series [5], the Vd came out at 1.2 L/kg. The compound also gave a logP in series [6] of 5. The compound also showed a solubility (thermodynamic) in series [7] of 63 µg/mL (≈ 165 µM).
Regarding `CCCC[C@H](NC(=O)OC(C(C)C)C(C)C)C(=O)C(=O)NCc1nnco1`, the Papp A→B in series [1] was found to be 51 ×10⁻⁶ cm/s. In series [2], the bioavailability turned out to be 16%. Moreover, in series [3], the clearance is 33 mL/min/kg. Moreover, the half-life in series [4] was found to be 0.35 h. Also, in series [5], the Vd stood at 0.98 L/kg. Further, the lipophilicity (logP) in series [6] came out at 3.4. For the same compound, the solubility (thermodynamic) in series [7] is 150 µg/mL (≈ 392 µM).
Turning to `CCCC[C@H](NC(=O)OC(C(C)C)C(C)C)C(=O)C(=O)NCc1ccccn1`, the Papp A→B in series [1] amounted to 51 ×10⁻⁶ cm/s. The same compound had a bioavailability in series [2] of 10%. This compound yielded a clearance in series [3] of 5.2 mL/min/kg. Moreover, the half-life in series [4] was 1.28 h. In series [5], the Vd was 0.24 L/kg. The thermodynamic solubility in series [7] is 28 µg/mL (≈ 71.5 µM).
Consider `CCCC[C@H](NC(=O)OC(C(C)C)C(C)C)C(=O)C(=O)N[C@H](C)c1ccccc1`, for which the Papp A→B in series [1] stood at 5.7 ×10⁻⁶ cm/s. For the same compound, the bioavailability in series [2] is 3.1%. In addition, in series [3], the clearance was 8.7 mL/min/kg. In series [5], the Vd came out at 1.9 L/kg. Moreover, the logP in series [6] was 7.3. Also, the thermodynamic solubility in series [7] is 12 µg/mL (≈ 29.7 µM).
In the case of `CCCC[C@H](NC(=O)OC(C(C)C)C(C)C)C(=O)C(=O)N[C@H]1CCCNC1=O`, the Papp A→B in series [1] was 31 ×10⁻⁶ cm/s. This compound yielded a bioavailability in series [2] of 20%. The clearance in series [3] was 44 mL/min/kg. For the same compound, the half-life in series [4] is 3.67 h. The Vd in series [5] came out at 1.6 L/kg. The logP in series [6] was found to be 4.4. This compound yielded a thermodynamic solubility in series [7] of 350 µg/mL (≈ 880 µM).
`CCCC[C@H](NC(=O)OC(C(C)C)C(C)C)C(=O)C(=O)NCc1ccncc1`: the bioavailability in series [2] amounted to 5.2%. Besides, the clearance in series [3] turned out to be 7.1 mL/min/kg. This compound had a half-life in series [4] of 4 h. Further, in series [5], the Vd was 0.09 L/kg. Moreover, in series [7], the solubility (thermodynamic) is 62 µg/mL (≈ 158 µM).
In series [2], `CNC(=O)NCCCC[C@H](NC(=O)OC(C(C)C)C(C)C)C(=O)C(=O)N[C@H](C)c1ccccc1` registered a bioavailability of 10%. Moreover, the clearance in series [3] was determined as 24 mL/min/kg. In series [4], this compound yielded a half-life of 4.33 h. In addition, the Vd in series [5] turned out to be 1.5 L/kg. Moreover, the logP in series [6] came out at 5.5. In addition, the thermodynamic solubility in series [7] was 32 µg/mL (≈ 67.1 µM).
As for `CCCC[C@H](NC(=O)OC(C(C)C)C(C)C)C(=O)C(=O)NCc1cncs1`, the Papp A→B in series [1] turned out to be 48 ×10⁻⁶ cm/s. This compound also registered a bioavailability in series [2] of 55%. Also, in series [3], the clearance came to 28 mL/min/kg. This compound registered a half-life in series [4] of 2.5 h. For the same compound, the Vd in series [5] amounted to 1.3 L/kg. The same compound showed a logP in series [6] of 5.3. Moreover, the solubility (thermodynamic) in series [7] was 51 µg/mL (≈ 128 µM).

By Papp A→B is commonly meant the apparent permeability from the apical to the basolateral side of a cell layer. As usually defined, the bioavailability is dose-corrected exposure relative to a reference, in per cent. A higher bioavailability goes with much systemic uptake. The term clearance denotes the volume of plasma or blood freed of the substance per unit of time. Lower therefore signals a low capacity for elimination. What is called half-life is the time needed for the level to fall by half in the phase considered. High values mean slow loss, low ones fast loss. One may read the logP as the decadic logarithm of the partition coefficient of the neutral form, usually between octanol and water. A high value points to a more lipophilic compound. As usually defined, the solubility (thermodynamic) is the concentration in solution at equilibrium with solid.
